From ChEMBL document CHEMBL5463728, “Data for DCP probe BAY-6096” (2023)

Experiments:
[1] = biological target: Sodium-dependent dopamine transporter (Homo sapiens) (UniProt Q01959); details: Compound concentration 10.0 uM
[2] = biological target: Muscarinic acetylcholine receptor M1 (Homo sapiens) (UniProt P11229); details: Compound concentration 10.0 uM
[3] = biological target: B1 bradykinin receptor (Homo sapiens) (UniProt P46663); details: Compound concentration 10.0 uM
[4] = biological target: Adenosine receptor A1 (Homo sapiens) (UniProt P30542); details: Compound concentration 10.0 uM
[5] = biological target: Delta-type opioid receptor (Homo sapiens) (UniProt P41143); details: Compound concentration 10.0 uM
[6] = biological target: Adenosine receptor A3 (Homo sapiens) (UniProt P0DMS8); details: Compound concentration 10.0 uM
[7] = biological target: Purinergic P2Y (Rattus norvegicus) (UniProt O35811+Q9EPX4+P49651+Q63371+P41232+O35881+Q6GUG4); details: Compound concentration 10.0 uM
[8] = biological target: T1, 5-hydroxytryptamine receptor 2C (Homo sapiens) (UniProt P28335); details: Compound concentration 10.0 uM
T1 sequence (whole entry): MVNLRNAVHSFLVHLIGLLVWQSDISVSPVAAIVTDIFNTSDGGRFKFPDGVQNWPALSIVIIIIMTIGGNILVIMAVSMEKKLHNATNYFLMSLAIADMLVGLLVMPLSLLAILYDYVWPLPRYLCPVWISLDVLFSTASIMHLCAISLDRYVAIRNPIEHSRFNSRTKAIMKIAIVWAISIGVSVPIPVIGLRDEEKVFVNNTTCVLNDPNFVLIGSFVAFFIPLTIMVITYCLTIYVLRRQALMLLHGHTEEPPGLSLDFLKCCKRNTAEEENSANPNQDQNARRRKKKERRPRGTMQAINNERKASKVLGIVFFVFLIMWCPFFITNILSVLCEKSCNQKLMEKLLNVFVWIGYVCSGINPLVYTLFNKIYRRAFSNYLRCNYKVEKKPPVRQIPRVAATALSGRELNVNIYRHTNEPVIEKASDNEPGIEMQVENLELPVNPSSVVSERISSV

[9] = biological target: Acetylcholinesterase (Homo sapiens) (UniProt P22303); details: Compound concentration 10.0 uM
[10] = biological target: Cannabinoid receptor 2 (Homo sapiens) (UniProt P34972); details: Compound concentration 10.0 uM
[11] = species: Homo sapiens; assay: Inhibition of Nicotinic Acetylcholine at compound concentration of 10.0 uM in the Eurofins-Panlabs radioligand binding assay (Eurofins_assay_258590); type: protein-complex assay; details: Compound concentration 10.0 uM
[12] = biological target: D(1A) dopamine receptor (Homo sapiens) (UniProt P21728); details: Compound concentration 10.0 uM
[13] = biological target: 5-hydroxytryptamine receptor 2A (Homo sapiens) (UniProt P28223); details: Compound concentration 10.0 uM
[14] = species: Oryctolagus cuniculus; details: Compound concentration 10.0 uM
[15] = biological target: Androgen receptor (Homo sapiens) (UniProt P10275); details: Compound concentration 10.0 uM
[16] = biological target: Kappa-type opioid receptor (Homo sapiens) (UniProt P41145); details: Compound concentration 10.0 uM
[17] = biological target: Prostaglandin G/H synthase 2 (Homo sapiens) (UniProt P35354); assay: Inhibition of Cyclooxygenase COX-2 at compound concentration of 10.0 uM in the Eurofins-Panlabs enzyme assay (Eurofins_assay_118010); parameters: substrate with concentration 0.3 uM Arachidonic acid, incubation time 15 min, incubation temperature 37 C; details: Compound concentration 10.0 uM
[18] = biological target: Nitric oxide synthase, inducible (Homo sapiens) (UniProt P35228); assay: Inhibition of Nitric Oxide Synthase, Inducible (iNOS) at compound concentration of 10.0 uM in the Eurofins-Panlabs enzyme assay (Eurofins_assay_199010); parameters: substrate with concentration; details: Mus musculus; Compound concentration 10.0 uM
[19] = biological target: GABA-A receptor; anion channel (Rattus norvegicus) (UniProt O09028+P15431+P18506+P18508+P19969+P20236+P23574+P23576+P28471+P28473+P30191+P62813+P63079+P63138+Q91ZM7+Q9ES14); details: Compound concentration 10.0 uM
[20] = biological target: Glutamate receptor 2 (Homo sapiens) (UniProt P42262); details: Rattus norvegicus; Compound concentration 10.0 uM
[21] = biological target: Gamma-aminobutyric acid type B receptor subunit 1 (Homo sapiens) (UniProt Q9UBS5); details: Rattus norvegicus; Compound concentration 10.0 uM
[22] = biological target: Phosphodiesterase 3 (Homo sapiens) (UniProt Q14432+Q13370); assay: Inhibition of Phosphodiesterase PDE3 at compound concentration of 10.0 uM in the Eurofins-Panlabs enzyme assay (Eurofins_assay_152000); type: protein assay; parameters: substrate with concentration 1.01 uM [3H] cAMP + cAMP, incubation time 20 min, incubation temperature 25 C; details: Compound concentration 10.0 uM
[23] = biological target: Polyunsaturated fatty acid lipoxygenase ALOX15 (Homo sapiens) (UniProt P16050); assay: Inhibition of Lipoxygenase 15-LO at compound concentration of 10.0 uM in the Eurofins-Panlabs enzyme assay (Eurofins_assay_199017); details: Compound concentration 10.0 uM
[24] = biological target: Type-2 angiotensin II receptor (Homo sapiens) (UniProt P50052); details: Compound concentration 10.0 uM
[25] = biological target: Estrogen receptor (Homo sapiens) (UniProt P03372); details: Compound concentration 10.0 uM
[26] = biological target: Prostaglandin G/H synthase 1 (Homo sapiens) (UniProt P23219); assay: Inhibition of Cyclooxygenase COX-1 at compound concentration of 10.0 uM in the Eurofins-Panlabs enzyme assay (Eurofins_assay_116020); details: Compound concentration 10.0 uM
[27] = biological target: T2, Muscarinic acetylcholine receptor M4 (Homo sapiens) (UniProt P08173); details: Compound concentration 10.0 uM
T2 sequence (whole entry): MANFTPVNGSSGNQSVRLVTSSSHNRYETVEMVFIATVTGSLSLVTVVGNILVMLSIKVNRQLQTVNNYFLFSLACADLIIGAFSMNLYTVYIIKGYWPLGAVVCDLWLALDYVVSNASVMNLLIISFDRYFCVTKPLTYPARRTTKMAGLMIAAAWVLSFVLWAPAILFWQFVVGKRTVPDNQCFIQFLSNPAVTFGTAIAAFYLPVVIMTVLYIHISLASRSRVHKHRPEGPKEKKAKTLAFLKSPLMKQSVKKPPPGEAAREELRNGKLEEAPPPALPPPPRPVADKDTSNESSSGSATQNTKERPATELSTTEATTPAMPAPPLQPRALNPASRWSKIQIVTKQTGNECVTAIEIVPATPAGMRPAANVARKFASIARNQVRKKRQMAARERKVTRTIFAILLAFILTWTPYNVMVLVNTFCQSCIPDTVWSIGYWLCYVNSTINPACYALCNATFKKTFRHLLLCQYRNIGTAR

[28] = biological target: Sodium-dependent dopamine transporter (Homo sapiens) (UniProt Q01959); details: Compound concentration 10.0 uM; remark: listed apart in the source
[29] = biological target: cGMP-specific 3',5'-cyclic phosphodiesterase (Homo sapiens) (UniProt O76074); details: Compound concentration 10.0 uM

Measured: inhibition

Sequence of Sodium-dependent dopamine transporter (Homo sapiens) (Q01959 whole entry): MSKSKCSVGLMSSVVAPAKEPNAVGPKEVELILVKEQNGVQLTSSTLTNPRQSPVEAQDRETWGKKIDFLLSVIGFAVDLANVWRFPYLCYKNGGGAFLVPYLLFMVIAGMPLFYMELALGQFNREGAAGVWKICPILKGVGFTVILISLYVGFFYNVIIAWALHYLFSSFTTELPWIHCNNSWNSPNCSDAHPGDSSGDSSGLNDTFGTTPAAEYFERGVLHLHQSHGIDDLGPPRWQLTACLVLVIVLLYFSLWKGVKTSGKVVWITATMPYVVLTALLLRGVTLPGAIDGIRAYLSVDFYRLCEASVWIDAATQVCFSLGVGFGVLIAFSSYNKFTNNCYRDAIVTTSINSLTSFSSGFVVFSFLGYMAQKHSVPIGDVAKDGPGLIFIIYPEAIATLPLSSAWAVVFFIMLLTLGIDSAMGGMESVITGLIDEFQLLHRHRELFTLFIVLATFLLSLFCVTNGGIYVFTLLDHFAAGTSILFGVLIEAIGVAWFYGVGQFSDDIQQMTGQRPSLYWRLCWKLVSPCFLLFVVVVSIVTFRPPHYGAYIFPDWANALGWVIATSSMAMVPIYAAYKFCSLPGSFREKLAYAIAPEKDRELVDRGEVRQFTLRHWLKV
Sequence of Muscarinic acetylcholine receptor M1 (Homo sapiens) (P11229 whole entry): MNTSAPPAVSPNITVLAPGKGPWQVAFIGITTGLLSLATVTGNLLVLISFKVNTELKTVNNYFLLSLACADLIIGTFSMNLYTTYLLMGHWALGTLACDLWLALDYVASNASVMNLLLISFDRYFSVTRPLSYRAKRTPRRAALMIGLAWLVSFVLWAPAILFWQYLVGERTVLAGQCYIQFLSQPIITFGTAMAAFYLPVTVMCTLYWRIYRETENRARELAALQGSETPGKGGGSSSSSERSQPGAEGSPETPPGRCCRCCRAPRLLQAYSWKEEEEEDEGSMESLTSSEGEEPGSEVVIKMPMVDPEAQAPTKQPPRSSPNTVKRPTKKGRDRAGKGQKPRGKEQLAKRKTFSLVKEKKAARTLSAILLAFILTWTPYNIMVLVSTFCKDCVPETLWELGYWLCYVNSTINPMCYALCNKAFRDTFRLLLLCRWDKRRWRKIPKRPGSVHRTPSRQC
Sequence of Kappa-type opioid receptor (Homo sapiens) (P41145 whole entry): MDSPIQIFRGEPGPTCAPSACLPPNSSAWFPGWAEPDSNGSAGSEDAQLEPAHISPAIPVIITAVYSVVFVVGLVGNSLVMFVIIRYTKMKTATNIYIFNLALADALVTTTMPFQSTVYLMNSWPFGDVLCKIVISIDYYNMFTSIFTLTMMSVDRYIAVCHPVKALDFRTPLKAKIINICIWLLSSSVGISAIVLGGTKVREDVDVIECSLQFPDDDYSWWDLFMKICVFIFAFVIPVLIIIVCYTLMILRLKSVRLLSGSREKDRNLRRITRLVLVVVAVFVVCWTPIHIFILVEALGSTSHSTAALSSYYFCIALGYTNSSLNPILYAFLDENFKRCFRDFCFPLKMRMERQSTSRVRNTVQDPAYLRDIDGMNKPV
Sequence of Adenosine receptor A1 (Homo sapiens) (P30542 whole entry): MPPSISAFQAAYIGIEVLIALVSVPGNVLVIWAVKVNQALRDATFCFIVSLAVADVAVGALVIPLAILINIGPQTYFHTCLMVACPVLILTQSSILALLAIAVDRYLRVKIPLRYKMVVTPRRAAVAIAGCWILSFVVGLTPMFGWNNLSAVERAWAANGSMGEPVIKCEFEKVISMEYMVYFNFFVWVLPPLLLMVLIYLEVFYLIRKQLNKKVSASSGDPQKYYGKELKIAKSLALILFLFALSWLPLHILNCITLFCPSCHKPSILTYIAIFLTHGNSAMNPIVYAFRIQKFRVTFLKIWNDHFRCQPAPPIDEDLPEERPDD
Sequence of Acetylcholinesterase (Homo sapiens) (P22303 whole entry): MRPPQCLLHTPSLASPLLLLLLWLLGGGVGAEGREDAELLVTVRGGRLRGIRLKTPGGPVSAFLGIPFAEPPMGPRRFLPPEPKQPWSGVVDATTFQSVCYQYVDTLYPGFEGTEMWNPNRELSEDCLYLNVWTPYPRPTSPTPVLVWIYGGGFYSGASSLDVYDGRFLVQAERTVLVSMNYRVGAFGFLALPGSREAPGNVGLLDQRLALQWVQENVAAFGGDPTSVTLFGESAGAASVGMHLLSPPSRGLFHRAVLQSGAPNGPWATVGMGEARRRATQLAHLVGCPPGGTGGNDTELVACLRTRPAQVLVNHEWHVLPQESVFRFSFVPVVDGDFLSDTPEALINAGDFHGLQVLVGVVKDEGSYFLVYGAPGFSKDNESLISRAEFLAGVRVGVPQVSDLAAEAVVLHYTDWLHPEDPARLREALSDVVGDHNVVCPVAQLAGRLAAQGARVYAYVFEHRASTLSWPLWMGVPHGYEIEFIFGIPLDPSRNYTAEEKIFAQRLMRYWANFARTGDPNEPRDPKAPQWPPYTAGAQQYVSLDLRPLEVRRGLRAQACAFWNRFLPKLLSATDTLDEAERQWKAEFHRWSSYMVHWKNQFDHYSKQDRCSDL
Sequence of Androgen receptor (Homo sapiens) (P10275 whole entry): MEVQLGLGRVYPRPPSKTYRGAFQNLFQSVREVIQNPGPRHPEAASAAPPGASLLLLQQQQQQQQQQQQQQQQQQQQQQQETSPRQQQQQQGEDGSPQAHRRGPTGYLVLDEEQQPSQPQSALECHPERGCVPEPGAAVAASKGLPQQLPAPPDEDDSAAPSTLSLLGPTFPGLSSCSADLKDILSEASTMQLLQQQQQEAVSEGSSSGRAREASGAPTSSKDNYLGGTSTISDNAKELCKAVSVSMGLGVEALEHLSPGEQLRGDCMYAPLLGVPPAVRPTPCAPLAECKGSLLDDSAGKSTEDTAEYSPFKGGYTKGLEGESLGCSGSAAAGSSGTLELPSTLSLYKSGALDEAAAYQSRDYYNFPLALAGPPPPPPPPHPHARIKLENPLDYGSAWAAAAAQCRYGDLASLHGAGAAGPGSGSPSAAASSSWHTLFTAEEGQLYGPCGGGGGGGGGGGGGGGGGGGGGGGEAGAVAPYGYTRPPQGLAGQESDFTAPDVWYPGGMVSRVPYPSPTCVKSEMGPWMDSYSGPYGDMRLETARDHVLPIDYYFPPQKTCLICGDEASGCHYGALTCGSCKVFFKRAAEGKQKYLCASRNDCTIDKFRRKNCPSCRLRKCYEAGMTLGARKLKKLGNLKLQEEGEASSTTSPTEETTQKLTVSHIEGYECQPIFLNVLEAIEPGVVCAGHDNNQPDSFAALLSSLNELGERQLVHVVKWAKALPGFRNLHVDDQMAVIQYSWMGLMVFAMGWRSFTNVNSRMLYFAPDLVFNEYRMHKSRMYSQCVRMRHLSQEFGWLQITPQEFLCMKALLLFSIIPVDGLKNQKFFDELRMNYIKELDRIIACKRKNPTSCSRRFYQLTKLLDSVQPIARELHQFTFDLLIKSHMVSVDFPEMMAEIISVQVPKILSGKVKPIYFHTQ
Sequence of Prostaglandin G/H synthase 1 (Homo sapiens) (P23219 whole entry): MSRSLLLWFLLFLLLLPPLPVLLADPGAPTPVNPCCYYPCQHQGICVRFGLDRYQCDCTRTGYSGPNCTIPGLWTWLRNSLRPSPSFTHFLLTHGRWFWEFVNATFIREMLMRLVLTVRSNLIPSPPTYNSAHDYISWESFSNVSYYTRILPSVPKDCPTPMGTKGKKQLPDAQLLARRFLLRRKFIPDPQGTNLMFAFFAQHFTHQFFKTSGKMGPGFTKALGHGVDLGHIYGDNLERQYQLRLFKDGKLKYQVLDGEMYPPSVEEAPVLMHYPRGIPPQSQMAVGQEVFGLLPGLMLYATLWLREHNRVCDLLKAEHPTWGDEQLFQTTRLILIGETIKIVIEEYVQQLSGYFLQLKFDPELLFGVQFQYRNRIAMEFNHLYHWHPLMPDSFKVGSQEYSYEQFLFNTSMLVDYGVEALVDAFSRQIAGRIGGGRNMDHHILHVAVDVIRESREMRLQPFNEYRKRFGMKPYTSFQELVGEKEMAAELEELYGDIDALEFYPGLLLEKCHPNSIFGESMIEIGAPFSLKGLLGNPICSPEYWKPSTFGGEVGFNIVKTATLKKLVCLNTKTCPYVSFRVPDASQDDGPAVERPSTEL
Sequence of Prostaglandin G/H synthase 2 (Homo sapiens) (P35354 whole entry): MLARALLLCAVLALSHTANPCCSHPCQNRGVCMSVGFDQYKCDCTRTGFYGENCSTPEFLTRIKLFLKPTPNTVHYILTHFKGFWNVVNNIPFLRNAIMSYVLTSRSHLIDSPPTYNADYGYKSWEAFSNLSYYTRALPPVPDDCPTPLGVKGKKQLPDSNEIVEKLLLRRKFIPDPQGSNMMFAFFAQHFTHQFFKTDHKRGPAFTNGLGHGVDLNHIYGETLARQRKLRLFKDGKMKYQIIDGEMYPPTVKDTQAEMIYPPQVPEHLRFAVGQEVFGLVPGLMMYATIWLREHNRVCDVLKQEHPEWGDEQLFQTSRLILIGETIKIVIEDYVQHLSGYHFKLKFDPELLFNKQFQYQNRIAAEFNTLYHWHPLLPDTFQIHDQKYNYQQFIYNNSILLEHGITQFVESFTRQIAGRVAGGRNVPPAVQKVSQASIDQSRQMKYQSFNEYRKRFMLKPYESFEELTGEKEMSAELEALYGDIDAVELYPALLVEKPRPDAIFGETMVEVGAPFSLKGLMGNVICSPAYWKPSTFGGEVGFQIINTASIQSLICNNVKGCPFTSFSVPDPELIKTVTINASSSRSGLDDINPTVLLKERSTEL
Sequence of B1 bradykinin receptor (Homo sapiens) (P46663 whole entry): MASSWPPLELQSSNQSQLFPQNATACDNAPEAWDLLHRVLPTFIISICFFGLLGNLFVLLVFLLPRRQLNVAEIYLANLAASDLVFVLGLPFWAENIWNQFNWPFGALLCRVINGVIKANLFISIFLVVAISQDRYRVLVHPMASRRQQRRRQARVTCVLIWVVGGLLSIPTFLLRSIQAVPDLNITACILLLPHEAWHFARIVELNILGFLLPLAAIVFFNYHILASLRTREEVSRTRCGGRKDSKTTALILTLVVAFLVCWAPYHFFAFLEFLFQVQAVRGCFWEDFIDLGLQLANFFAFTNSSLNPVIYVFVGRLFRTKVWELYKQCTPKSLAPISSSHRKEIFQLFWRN

Cc1noc(C)c1-c1cnc2cc(C(=O)NCCC[n+]3ccc(N(C)C)cc3)ccn12
inactive: [1] -3.28% | [2] -6.93%

CNc1cc[n+](CCNC(=O)c2ccn3c(-c4c(C)noc4C)cnc3c2)cc1
inactive: [3] -0.9% | [4] 1.2% | [5] -5.3% | [6] 1.1% | [7] 10.6% | [8] 0.5% | [9] 14.8% | [10] -3.8% | [11] 9.4% | [12] -6.7% | [13] 1% | [14] -7.5% | [15] -2.7% | [16] 0.5% | [17] -8.7% | [18] 6.3% | [19] -1.9% | [20] -1.1% | [21] 2.1% | [22] 3.4% | [23] -0.5% | [24] 4.1% | [25] 6.2% | [26] -6.3% | [27] 3.5% | [28] 20.3% | [29] 3.6%
